Test results as given in PubChem BioAssay (NCI).
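Each compound was tested at five concentrations against cells in 96-well plates for 48 hours. The concentration for full growth arrest is given as TGI.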

Legend:
Experiment in all cases: DTP human tumour cell line panel, 48 h
HCC-2998 colon = system: HCC-2998 colon
LXFL 529 NSCLC = system: LXFL 529 NSCLC
A549 NSCLC = system: A549 NSCLC
SK-MEL-28 melanoma = system: SK-MEL-28 melanoma
NCI-H460 lung = system: NCI-H460 lung
HOP-92 NSCLC = system: HOP-92 NSCLC
U251 CNS = system: U251 CNS
SK-MEL-2 melanoma = system: SK-MEL-2 melanoma
HT29 colon = system: HT29 colon
TK-10 renal = system: TK-10 renal
SF-539 CNS = system: SF-539 CNS
SN12C renal = system: SN12C renal
MALME-3M melanoma = system: MALME-3M melanoma
786-0 renal = system: 786-0 renal
UACC-257 melanoma = system: UACC-257 melanoma
COLO 205 colon = system: COLO 205 colon
DLD-1 colon = system: DLD-1 colon
SW-620 colon = system: SW-620 colon
NCI-H522 lung = system: NCI-H522 lung
M14 melanoma = system: M14 melanoma
DMS 114 small cell lung = system: DMS 114 small cell lung
DMS 273 small cell lung = system: DMS 273 small cell lung
LOX IMVI melanoma = system: LOX IMVI melanoma
NCI-H226 lung = system: NCI-H226 lung
KM20L2 colon = system: KM20L2 colon
SNB-19 CNS = system: SNB-19 CNS
HOP-18 NSCLC = system: HOP-18 NSCLC
CAKI-1 renal = system: CAKI-1 renal
SF-268 CNS = system: SF-268 CNS
HL-60(TB) leukemia = system: HL-60(TB) leukemia
RXF 393 renal = system: RXF 393 renal
UO-31 renal = system: UO-31 renal
SF-295 CNS = system: SF-295 CNS
M19-MEL melanoma = system: M19-MEL melanoma
KM12 colon = system: KM12 colon
OVCAR-4 ovarian = system: OVCAR-4 ovarian
XF 498 CNS = system: XF 498 CNS
SNB-75 CNS = system: SNB-75 CNS
OVCAR-8 ovarian = system: OVCAR-8 ovarian
OVCAR-5 ovarian = system: OVCAR-5 ovarian
SNB-78 CNS = system: SNB-78 CNS
NCI-H23 lung = system: NCI-H23 lung
HOP-62 NSCLC = system: HOP-62 NSCLC
ACHN renal = system: ACHN renal
EKVX NSCLC = system: EKVX NSCLC
HCT-116 colon = system: HCT-116 colon
SK-OV-3 ovarian = system: SK-OV-3 ovarian
MOLT-4 leukemia = system: MOLT-4 leukemia
IGROV1 ovarian = system: IGROV1 ovarian
UACC-62 melanoma = system: UACC-62 melanoma
SK-MEL-5 melanoma = system: SK-MEL-5 melanoma
HCT-15 colon = system: HCT-15 colon
RPMI-8226 leukemia = system: RPMI-8226 leukemia
CCRF-CEM leukemia = system: CCRF-CEM leukemia
K-562 leukemia = system: K-562 leukemia
OVCAR-3 ovarian = system: OVCAR-3 ovarian
A498 renal = system: A498 renal
RXF-631 renal = system: RXF-631 renal
SR leukemia = system: SR leukemia

`C=CC1[C@H]2COC(C)(C)O[C@@H]2CC(=O)C1(C)C` (stereo not given in full) was tested, and the TGI (HCC-2998 colon) was greater than 100 µM, the TGI (LXFL 529 NSCLC) was greater than 100 µM and the TGI (A549 NSCLC) was greater than 100 µM. The TGI (SK-MEL-28 melanoma) was greater than 100 µM, the TGI (NCI-H460 lung) was greater than 100 µM and the TGI (HOP-92 NSCLC) was greater than 100 µM. For the same compound, the TGI (U251 CNS) was greater than 100 µM, the TGI (SK-MEL-2 melanoma) was greater than 100 µM and the TGI (HT29 colon) was greater than 100 µM. It also gave a TGI (TK-10 renal) greater than 100 µM, a TGI (SF-539 CNS) greater than 100 µM and a TGI (SN12C renal) greater than 100 µM. It also gave a TGI (MALME-3M melanoma) greater than 100 µM, a TGI (786-0 renal) greater than 100 µM and a TGI (UACC-257 melanoma) greater than 100 µM. For the same compound, the TGI (COLO 205 colon) was greater than 100 µM, the TGI (DLD-1 colon) was greater than 100 µM and the TGI (SW-620 colon) was greater than 100 µM. For the same compound, the TGI (NCI-H522 lung) was greater than 100 µM, the TGI (M14 melanoma) was greater than 100 µM and the TGI (DMS 114 small cell lung) was greater than 100 µM. It also gave a TGI (DMS 273 small cell lung) greater than 100 µM, a TGI (LOX IMVI melanoma) greater than 100 µM and a TGI (NCI-H226 lung) greater than 100 µM. For the same compound, the TGI (KM20L2 colon) was greater than 100 µM, the TGI (SNB-19 CNS) was greater than 100 µM and the TGI (HOP-18 NSCLC) was greater than 100 µM. It also gave a TGI (CAKI-1 renal) greater than 100 µM, a TGI (SF-268 CNS) greater than 100 µM and a TGI (HL-60(TB) leukemia) greater than 100 µM. The TGI (RXF 393 renal) was greater than 100 µM, the TGI (UO-31 renal) was greater than 100 µM and the TGI (SF-295 CNS) was greater than 100 µM. For the same compound, the TGI (M19-MEL melanoma) was greater than 100 µM, the TGI (KM12 colon) was greater than 100 µM and the TGI (OVCAR-4 ovarian) was greater than 100 µM. The TGI (XF 498 CNS) was greater than 100 µM, the TGI (SNB-75 CNS) was greater than 100 µM and the TGI (OVCAR-8 ovarian) was greater than 100 µM. The TGI (OVCAR-5 ovarian) was greater than 100 µM, the TGI (SNB-78 CNS) was greater than 100 µM and the TGI (NCI-H23 lung) was greater than 100 µM. The TGI (HOP-62 NSCLC) was greater than 100 µM, the TGI (ACHN renal) was greater than 100 µM and the TGI (EKVX NSCLC) was greater than 100 µM. The TGI (HCT-116 colon) was greater than 100 µM.
`CCOC(=O)/C(O)=C/c1cc(OC)cc(=O)o1` gave a TGI (SK-OV-3 ovarian) greater than 100 µM, a TGI (MOLT-4 leukemia) greater than 100 µM and a TGI (HCC-2998 colon) greater than 100 µM. For the same compound, the TGI (LXFL 529 NSCLC) was greater than 100 µM, the TGI (A549 NSCLC) was greater than 100 µM and the TGI (SK-MEL-28 melanoma) was greater than 100 µM. It also gave a TGI (NCI-H460 lung) greater than 100 µM, a TGI (HOP-92 NSCLC) greater than 100 µM and a TGI (U251 CNS) greater than 100 µM. The TGI (IGROV1 ovarian) was greater than 100 µM, the TGI (SK-MEL-2 melanoma) was greater than 100 µM and the TGI (HT29 colon) was greater than 100 µM. The TGI (UACC-62 melanoma) was greater than 100 µM, the TGI (TK-10 renal) was greater than 100 µM and the TGI (SF-539 CNS) was greater than 100 µM. For the same compound, the TGI (SN12C renal) was greater than 100 µM, the TGI (MALME-3M melanoma) was greater than 100 µM and the TGI (786-0 renal) was greater than 100 µM. It also gave a TGI (UACC-257 melanoma) greater than 100 µM, a TGI (COLO 205 colon) greater than 100 µM and a TGI (DLD-1 colon) greater than 100 µM. For the same compound, the TGI (SK-MEL-5 melanoma) was greater than 100 µM, the TGI (SW-620 colon) was greater than 100 µM and the TGI (NCI-H522 lung) was greater than 100 µM. The TGI (M14 melanoma) was greater than 100 µM, the TGI (HCT-15 colon) was greater than 100 µM and the TGI (RPMI-8226 leukemia) was greater than 100 µM. The TGI (CCRF-CEM leukemia) was greater than 100 µM, the TGI (DMS 114 small cell lung) was greater than 100 µM and the TGI (DMS 273 small cell lung) was greater than 100 µM. It also gave a TGI (LOX IMVI melanoma) greater than 100 µM, a TGI (NCI-H226 lung) greater than 100 µM and a TGI (KM20L2 colon) greater than 100 µM. It also gave a TGI (SNB-19 CNS) greater than 100 µM, a TGI (HOP-18 NSCLC) greater than 100 µM and a TGI (CAKI-1 renal) greater than 100 µM. The TGI (K-562 leukemia) was greater than 100 µM, the TGI (SF-268 CNS) was greater than 100 µM and the TGI (HL-60(TB) leukemia) was greater than 100 µM. The TGI (RXF 393 renal) was greater than 100 µM, the TGI (UO-31 renal) was greater than 100 µM and the TGI (SF-295 CNS) was greater than 100 µM. It also gave a TGI (M19-MEL melanoma) greater than 100 µM, a TGI (KM12 colon) greater than 100 µM and a TGI (OVCAR-4 ovarian) greater than 100 µM. For the same compound, the TGI (SNB-75 CNS) was greater than 100 µM, the TGI (OVCAR-8 ovarian) was greater than 100 µM and the TGI (OVCAR-5 ovarian) was greater than 100 µM. It also gave a TGI (OVCAR-3 ovarian) greater than 100 µM, a TGI (SNB-78 CNS) greater than 100 µM and a TGI (NCI-H23 lung) greater than 100 µM. The TGI (ACHN renal) was greater than 100 µM, the TGI (A498 renal) was greater than 100 µM and the TGI (EKVX NSCLC) was greater than 100 µM. The TGI (HCT-116 colon) was greater than 100 µM.
Work on `O=C(O)C1C2CCC(O2)C1C(=O)N1CCCCC1` (stereo not given) yielded a TGI (SK-OV-3 ovarian) of 42.9 µM, a TGI (MOLT-4 leukemia) of 20.6 µM and a TGI (HCC-2998 colon) of 11.9 µM. It also gave a TGI (LXFL 529 NSCLC) of 16.9 µM, a TGI (A549 NSCLC) greater than 100 µM and a TGI (SK-MEL-28 melanoma) of 19.5 µM. For the same compound, the TGI (NCI-H460 lung) was 39.2 µM, the TGI (HOP-92 NSCLC) was 7.33 µM and the TGI (U251 CNS) was 17 µM. It also gave a TGI (IGROV1 ovarian) of 74.6 µM, a TGI (SK-MEL-2 melanoma) of 21.2 µM and a TGI (HT29 colon) of 15.1 µM. The TGI (UACC-62 melanoma) was 20.4 µM, the TGI (TK-10 renal) was 8.42 µM and the TGI (SF-539 CNS) was 23.5 µM. The TGI (SN12C renal) was 7.17 µM, the TGI (MALME-3M melanoma) was 23.6 µM and the TGI (786-0 renal) was 15 µM. It also gave a TGI (UACC-257 melanoma) of 32.4 µM, a TGI (COLO 205 colon) of 3.87 µM and a TGI (DLD-1 colon) of 39.7 µM. For the same compound, the TGI (RXF-631 renal) was 51.6 µM, the TGI (SK-MEL-5 melanoma) was 29.7 µM and the TGI (SW-620 colon) was 15 µM. The TGI (NCI-H522 lung) was 17.4 µM, the TGI (M14 melanoma) was 26.2 µM and the TGI (HCT-15 colon) was 26.1 µM. The TGI (RPMI-8226 leukemia) was 7.88 µM, the TGI (DMS 114 small cell lung) was 5.06 µM and the TGI (DMS 273 small cell lung) was 23.3 µM. For the same compound, the TGI (SR leukemia) was 14.2 µM, the TGI (LOX IMVI melanoma) was 23.3 µM and the TGI (NCI-H226 lung) was 16.6 µM. It also gave a TGI (KM20L2 colon) of 13.1 µM, a TGI (SNB-19 CNS) of 38.2 µM and a TGI (HOP-18 NSCLC) of 36.5 µM. For the same compound, the TGI (SF-268 CNS) was 28.9 µM, the TGI (RXF 393 renal) was 8.35 µM and the TGI (UO-31 renal) was 46 µM. It also gave a TGI (SF-295 CNS) of 23.9 µM, a TGI (M19-MEL melanoma) of 21.9 µM and a TGI (KM12 colon) of 37.2 µM. The TGI (OVCAR-4 ovarian) was 24.4 µM, the TGI (SNB-75 CNS) was 17.2 µM and the TGI (OVCAR-8 ovarian) was 18.1 µM. The TGI (OVCAR-5 ovarian) was 62.8 µM, the TGI (OVCAR-3 ovarian) was 4.66 µM and the TGI (SNB-78 CNS) was 38.3 µM. The TGI (NCI-H23 lung) was 33.4 µM, the TGI (HOP-62 NSCLC) was 35.8 µM and the TGI (ACHN renal) was 17 µM. It also gave a TGI (A498 renal) of 4.46 µM, a TGI (EKVX NSCLC) of 29.2 µM and a TGI (HCT-116 colon) of 22.6 µM.
